The text below walks through data of patent US8673940B2, “Compounds for the treatment of diseases associated with amyloid or amyloid-like proteins” (AC Immune SA, priority 2006, dated 2014).

Counter-ions that a name gives are not always drawn.

T1 sequence (P05067 672-713 limits assumed): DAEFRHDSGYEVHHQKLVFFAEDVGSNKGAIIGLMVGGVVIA

One series has as its target T1, amyloid beta (Aβ) 1-42 peptide (Homo sapiens, UniProt P05067).
T1 construct: amyloid beta (Aβ) 1-42 peptide; purchased Bachem
The series is described as follows: Thioflavin T spectrofluorescence assay, inhibition of Aβ1-42 aggregation. Conditions: 330 μM small molecule, 33 μM Aβ1-42 (10:1 molar ratio), 24 hrs at 37° C.; mean ± SD of two independent experiments; read-out: % inhibition. The class given is biochemical. As to the method:
A number of the small molecules were tested for their capacity to inhibit the aggregation of amyloid beta (Aβ) 1-42 peptide using a thioflavin T spectrofluorescence assay.
Aβ1-42 lyophilized powder (Bachem) was reconstituted in hexafluoroisopropanol (HFIP) to 1 mM. The peptide solution was sonicated for 15 min at room temperature, agitated overnight, and aliquots were placed into non-siliconized microcentrifuge tubes. The HFIP was then evaporated under a stream of argon. The resulting peptide film was dried under vacuum for 10 min, tightly sealed and stored at −80° C. until used.
To assay for the small molecule-mediated inhibition of Aβ1-42 aggregation, the small molecules were dissolved before each experiment in anhydrous dimethyl sulfoxide (DMSO, Sigma-Aldrich) to reach a concentration of 7.4 mM. Aβ1-42 peptide film was dissolved in DMSO to reach 400 μM. Assay solution in PBS buffer was prepared in non-siliconized incubation tubes to reach the following concentrations: 330 μM small molecule, 33 μM Aβ1-42, 10 μM thioflavin T (ThT), and 12.8% DMSO. Therefore, the final molar ratio of small molecule to Aβ1-42 was 10:1. A positive control without a small molecule was prepared to measure maximum RFU. A negative control without Aβ1-42 was prepared for each small molecule. 3-Aminopyrazole trimer (Trimer) was tested in all assays to ascertain reproducibility between independent experiments. The solutions were incubated for 24 hrs at 37° C., and the spectrofluorescence (relative fluorescence units; RFU) was read in six replicates in black 384-well assay plates (Perkin-Elmer) on a Perkin-Elmer FluoroCount spectrofluorometer. Inhibition of aggregation is expressed as mean % inhibition or ±1 standard deviation (SD) according to the following equation: […]
Cut-off criterium for the selection of functional molecules was defined at 50% inhibition capacity.
The small molecules were evaluated for their capacity to mediate inhibition of Aβ1-42 aggregation at a 10:1 small molecule to Aβ1-42 molar ratio. The results are expressed as mean±standard deviation of two independent experiments.
For orientation: inhibition means the percentage by which the read-out fell short of the control. On to `Nc1cccc(NCc2ccc(NCc3ccccc3)nc2)n1` [Compound 2y, N^2-((6-(benzylamino)pyridin-3-yl)methyl)pyridine-2,6-diamine], for which the inhibition at 330 µM came to 57 ± 15.9%.

Regarding `Fc1ccc(NCc2ccc(NCc3ccccc3)nc2)nc1` [Compound 2q, N-Benzyl-5-((5-fluoropyridin-2-ylamino)methyl)pyridin-2-amine], the inhibition at 330 µM turned out to be 45 ± 8.3%.

For the compound `Fc1ccc(-c2cc(CNc3cccc(NCc4ccccc4)n3)n[nH]2)cc1` [Compound 2s, N^2-benzyl-N^6-((5-(4-fluorophenyl)-1H-pyrazol-3-yl)methyl)pyridine-2,6-diamine], the inhibition at 330 µM is 55.1 ± 6.4%.

Consider `c1ccc(CNc2cccc(CNc3cc(-c4cccs4)[nH]n3)n2)cc1` [Compound 2ac, N-benzyl-6-((5-(thiophen-2-yl)-1H-pyrazol-3-ylamino)methyl)pyridin-2-amine], for which the inhibition at 330 µM is 78.5 ± 1.3%.

The same series, now with this note: 24 h.
In turn, `c1ccc(Nc2ncc(CNc3nccs3)s2)nc1` [Compound 2p, N-(Pyridin-2-yl)-5-((thiazol-2-ylamino)methyl)thiazol-2-amine trihydrochloride] registered an inhibition at 330 µM of 43.6 ± 2.1%.

As to `CNc1ncc(CNc2nc(-c3ccc(C)cc3)cs2)s1` [Compound 2n, N-Methyl-5-((4-p-tolylthiazol-2-ylamino)methyl)thiazol-2-amine dihydrochloride], 330 µM produced 27.8 ± 9.9% inhibition.

`CNc1ncc(CNc2nc(-c3ccc(Cl)cc3)cs2)s1` [Compound 2aa, 4-(4-Chlorophenyl)-N-((2-(methylamino)thiazol-5-yl)methyl)thiazol-2-amine dihydrochloride] yielded an inhibition at 330 µM of 41.5 ± 9.6%.

Compound `CNc1ncc(CNc2ncc(Cc3ccccc3)s2)s1` [Compound 2ah, 5-Benzyl-N-((2-(methylamino)thiazol-5-yl)methyl)thiazol-2-amine dihydrochloride] yielded an inhibition at 330 µM of 35.7 ± 5.6%.

Turning to `CCCNc1ncc(CNc2ncc(CNc3nc(-c4ccc(C)cc4)cs3)s2)s1` [Compound 2ad, N-Propyl-5-((5-((4-p-tolylthiazol-2-ylamino)methyl)thiazol-2-ylamino)methyl)thiazol-2-amine trihydrochloride], at 330 µM the inhibition was 82.1 ± 2.2%.

As for `Cc1ccc(-c2cc(CNc3cc(CNc4cc(-c5ccc(C)cc5)[nH]n4)n[nH]3)n[nH]2)cc1` [Compound 2ai, 5-p-Tolyl-N-((5-((5-p-tolyl-1H-pyrazol-3-yl)methylamino)-1H-pyrazol-3-yl)methyl)-1H-pyrazol-3-amine trihydrochloride], the inhibition at 330 µM came to 84.8%.

`Cc1ccc(-c2cc(CNc3cc(-c4ccc(C)cc4)[nH]n3)n[nH]2)cc1` [Compound 2a, 5-p-Tolyl-N-((5-p-tolyl-1H-pyrazol-3-yl)methyl)-1H-pyrazol-3-amine dihydrochloride] had an inhibition at 330 µM of 65.3 ± 2.6%.

On to `Cc1ccc(-c2csc(NCc3cnc(NCc4ccccc4)s3)n2)cc1` [Compound 2j, N-Benzyl-5-((4-p-tolylthiazol-2-ylamino)methyl)thiazol-2-amine dihydrochloride], for which the inhibition at 330 µM worked out at 70.7 ± 6.8%.

As for `c1ccc(CNc2ncc(CNc3nc(Cc4ccccc4)cs3)s2)cc1` [Compound 2ae, 4-Benzyl-N-((2-(benzylamino)thiazol-5-yl)methyl)thiazol-2-amine dihydrochloride], the inhibition at 330 µM turned out to be 51.2 ± 1.5%.

Consider `Cc1ccc(-c2csc(NCc3cnc(Nc4ccccn4)s3)n2)cc1` [Compound 2z, N-(Pyridin-2-yl)-5-((4-p-tolylthiazol-2-ylamino)methyl)thiazol-2-amine trihydrochloride], for which testing at 330 µM gave an inhibition of 58.7 ± 3%.

Take `Fc1ccc(-c2cc(NCc3cnc(NCc4ccccc4)s3)n[nH]2)cc1` [Compound 2k, N-Benzyl-5-((5-(4-fluorophenyl)-1H-pyrazol-3-ylamino)methyl)thiazol-2-amine dihydrochloride]: the inhibition at 330 µM came to 81.2 ± 7.3%.

Consider `c1ccc(CNc2ncc(CNc3nc(-c4cccs4)cs3)s2)cc1` [Compound 2al, N-Benzyl-5-((4-(thiophen-2-yl)thiazol-2-ylamino)methyl)thiazol-2-amine dihydrochloride], for which the inhibition at 330 µM was 66.1 ± 15.4%.

Take `c1ccc(CNc2ncc(CNc3ncc(Cc4ccccc4)s3)s2)cc1` [Compound 2ag, 5-Benzyl-N-((2-(benzylamino)thiazol-5-yl)methyl)thiazol-2-amine dihydrochloride]: the inhibition at 330 µM is 34.2 ± 1.6%.

`Cc1ccc(-c2cnc(NCc3cnc(NCc4ccccc4)s3)s2)cc1` [Compound 2h, N-Benzyl-5-((5-p-tolylthiazol-2-ylamino)methyl)thiazol-2-amine dihydrochloride] had an inhibition at 330 µM of 31.9 ± 10.1%.

As to `CNc1ncc(CNc2nccs2)s1` [Compound 2w, N-Methyl-5-((thiazol-2-ylamino)methyl)thiazole-2-amine dihydrochloride], testing at 330 µM gave an inhibition of 13.9 ± 12.9%.

`CNc1ncc(CNc2nc(Cc3ccccc3)cs2)s1` [Compound 2af, 4-Benzyl-N-((2-(methylamino)thiazol-5-yl)methyl)thiazol-2-amine dihydrochloride] displayed an inhibition at 330 µM of 41.3 ± 9.2%.

`CNc1ncc(CNc2ncc(-c3ccc(C)cc3)s2)s1` [Compound 2o, N-Methyl-5-((5-p-tolylthiazol-2-ylamino)methyl)thiazol-2-amine dihydrochloride] returned an inhibition at 330 µM of 39.6 ± 2.8%.

Tested on in the next series: not given
Test: not given
Details: not given
By melting point is commonly meant the temperature, or range, at which the solid turns liquid. `Nc1cccc(NCc2ccc(NCc3ccccc3)nc2)n1` (as salt: hydrochloride) [Compound 2y, N^2-((6-(benzylamino)pyridin-3-yl)methyl)pyridine-2,6-diamine]: the melting point fell in the range of 261 to 262 °C.

Compound `CNc1ncc(CNc2nc(-c3ccc(C)cc3)cs2)s1` (as salt: hydrochloride) [Compound 2n, N-Methyl-5-((4-p-tolylthiazol-2-ylamino)methyl)thiazol-2-amine dihydrochloride] showed a melting point of 114 to 116 °C.

`CNc1ncc(CNc2nc(-c3ccc(Cl)cc3)cs2)s1` (as salt: hydrochloride) [Compound 2aa, 4-(4-Chlorophenyl)-N-((2-(methylamino)thiazol-5-yl)methyl)thiazol-2-amine dihydrochloride] had a melting point of 122 to 123 °C.

`CNc1ncc(CNc2nc(Cc3ccccc3)cs2)s1` (as salt: hydrochloride) [Compound 2af, 4-Benzyl-N-((2-(methylamino)thiazol-5-yl)methyl)thiazol-2-amine dihydrochloride] yielded a melting point of 126 to 127 °C.

In the case of `Cc1ccc(-c2csc(NCc3cnc(NCc4ccccc4)s3)n2)cc1` (as salt: hydrochloride) [Compound 2j, N-Benzyl-5-((4-p-tolylthiazol-2-ylamino)methyl)thiazol-2-amine dihydrochloride], the melting point fell in the range of 106 to 108 °C.

As to `CCCNc1ncc(CNc2ncc(CNc3nc(-c4ccc(C)cc4)cs3)s2)s1` (as salt: hydrochloride) [Compound 2ad, N-Propyl-5-((5-((4-p-tolylthiazol-2-ylamino)methyl)thiazol-2-ylamino)methyl)thiazol-2-amine trihydrochloride], the melting point is > 135 °C (dec.).

As to `c1ccc(CNc2ncc(CNc3nc(Cc4ccccc4)cs3)s2)cc1` (as salt: hydrochloride) [Compound 2ae, 4-Benzyl-N-((2-(benzylamino)thiazol-5-yl)methyl)thiazol-2-amine dihydrochloride], the melting point was 78 to 79 °C.

`Cc1ccc(-c2csc(NCc3cnc(Nc4ccccn4)s3)n2)cc1` (as salt: hydrochloride) [Compound 2z, N-(Pyridin-2-yl)-5-((4-p-tolylthiazol-2-ylamino)methyl)thiazol-2-amine trihydrochloride] gave a melting point of 169 to 170 °C.

Compound `Fc1ccc(-c2cc(NCc3cnc(NCc4ccccc4)s3)n[nH]2)cc1` (as salt: hydrochloride) [Compound 2k, N-Benzyl-5-((5-(4-fluorophenyl)-1H-pyrazol-3-ylamino)methyl)thiazol-2-amine dihydrochloride] registered a melting point of 78 to 80 °C.

The compound `Cc1ccc(-c2cnc(NCc3cnc(NCc4ccccc4)s3)s2)cc1` (as salt: hydrochloride) [Compound 2h, N-Benzyl-5-((5-p-tolylthiazol-2-ylamino)methyl)thiazol-2-amine dihydrochloride] gave a melting point of 105 to 106 °C.

`c1ccc(CNc2ncc(CNc3ncc(Cc4ccccc4)s3)s2)cc1` (as salt: hydrochloride) [Compound 2ag, 5-Benzyl-N-((2-(benzylamino)thiazol-5-yl)methyl)thiazol-2-amine dihydrochloride]: the melting point was in the range of 96 to 97 °C.

Compound `CNc1ncc(CNc2ncc(Cc3ccccc3)s2)s1` (as salt: hydrochloride) [Compound 2ah, 5-Benzyl-N-((2-(methylamino)thiazol-5-yl)methyl)thiazol-2-amine dihydrochloride] showed a melting point of 76 to 77 °C.
